# Results as given in ChEMBL document CHEMBL1158141, “A sorbicillinoid urea from an intertidal Paecilomyces marquandii” (2006).
# How the values were obtained:
# [1] = tested on: Bacillus subtilis; assay: Antibiotic activity against Bacillus subtilis ATCC 6633 by agar diffusion method; assay type: functional
# [2] = tested on: Escherichia coli; assay: Antibiotic activity against Escherichia coli ATCC 25922 by agar diffusion method; assay type: functional
SMILES,inhibition zone (IZ) [1],inhibition zone (IZ) [2]
CC(C)C[C@@H]1NC(=O)[C@H](Cc2ccccc2)NC1=O,10 mm,8 mm
CC(C)[C@@H]1NC(=O)[C@H](Cc2ccccc2)NC1=O,9 mm,8 mm
